Legend:
lung cancer (A549) cells = assay: MTT dose response cytotoxicity, A549; type: cell-based; settings: Homo sapiens, 48 h
Protocol: (§1) Cells were seeded as described in above. […] The medium was aspirated and replaced with 200 μL fresh medium containing the dilution of the respective test compound. The test sample were added to each well and the plates were incubated for a further 48 h at 37 °C under 5% CO2 atmosphere in a humidified incubator. After this incubation period, the medium was removed and then replaced with 100 μL fresh culture medium containing MTT at a final concentration of 0.5 mg/mL. The 96-well plates were returned to the incubator and incubated for an additional 3 h. The medium was removed and the MTT crystals were solubilized in 100 μL DMSO and the absorbance was measured at 560 nm using a Labsystems Multiwell Scanning spectrophotometer (Thermo Fischer Scientific, Edenvale, South Africa).
(§2) Quantification of live and dead cells for the screening assay was performed using the ImageXpress Micro XLS Widefield Microscope and acquired images analysed using the MetaXpress software and Multi-Wavelength Cell Scoring Application Module. Acquired data was transferred to an EXCEL spreadsheet and relative cell viability was determined using quadruplicate wells for each concentration. Untreated cells were considered to have 100% cell viability (i.e., the mean OD of the untreated wells = 100% viability). Cell viabilities in other test wells were calculated relative to the untreated control and expressed as a percentage. Dose response analysis was performed using the statistical software GraphPad Prism and IC50 values calculated from the concentration-response data using a mathematical Hill function.

[1] = system: cervical cancer (HeLa) cells; assay: MTT dose response cytotoxicity, HeLa; type: cell-based; settings: Homo sapiens, 48 h
Protocol: as §1, §2

HeLa cells [2] = assay: Caspase 8 and 3 activation (immunochemical), HeLa; type: cell-based, human; settings: 24 h exposure at IC50 values
Protocol: (§3) Several distinctive mechanisms of cancer cell death such as apoptosis, necrosis, autophagy and cornification have been identified, and these are characterized by differences in morphology and biochemical changes. A major biochemical feature of apoptosis is the activation of caspases, which plays a central role in the morphological changes associated with apoptosis. Caspase activation was determined using immunochemical methods and the antibodies against activated caspase 8 and caspase 3. […] Activated caspase 8 can be used as a convenient indicator of involvement of the extrinsic death receptor pathway of apoptosis. Executioner caspases including caspase 3 are, in turn, activated by the initiator caspases. This protein is either partially or totally responsible for the cleavage of many key proteins such as PARP, DNA protein kinases and retinoblastoma protein [25]. […] This was true for both activated caspase 8 and 3. A more distinct increase was evident with caspase 3 albeit less pronounced than that of 4c and the increase was expected as caspase 3 is activated by initiator caspase including caspase 8, which is a later event in apoptosis. […] Prolonged treatment of the cells with compounds 5e–h for 48 h or more, for example, would probably result in significant effects. We also evaluated compound 5g for potential to induce other key apoptotic biochemical features such as phosphatidylserine (PS) translocation, cell cycle arrest and mitochondrial membrane depolarization.
(§4) Compounds 4c and 5g were selected for mechanism studies and these test compounds were reconstituted in dimethyl sulphoxide (DMSO) to give a final concentration of 40 mM. Samples were stored at 4 °C until required. […]
(§5) Quantification of live and dead cells for the assay was performed using the ImageXpress Micro XLS Widefield Microscope and acquired images analysed using the MetaXpress software and Multi-Wavelength Cell Scoring Application Module and the Cell Cycle Module. Acquired data was transferred to an EXCEL spreadsheet and data was analysed and processed.

A549 cells [3] = assay: Caspase 8 and 3 activation (immunochemical), A549; type: cell-based, human; settings: 24 h exposure at IC50 values
Protocol: as §3, §4, §5

HeLa cells [4] = assay: Other apoptotic features (PS translocation, cell cycle arrest, mitochondrial membrane depolarization), HeLa; type: cell-based, human; settings: after 24 h (data not included)
Protocol: (§6) Several distinctive mechanisms of cancer cell death such as apoptosis, necrosis, autophagy and cornification have been identified, and these are characterized by differences in morphology and biochemical changes. A major biochemical feature of apoptosis is the activation of caspases, which plays a central role in the morphological changes associated with apoptosis. Caspase activation was determined using immunochemical methods and the antibodies against activated caspase 8 and caspase 3. […] Activated caspase 8 can be used as a convenient indicator of involvement of the extrinsic death receptor pathway of apoptosis. Executioner caspases including caspase 3 are, in turn, activated by the initiator caspases. This protein is either partially or totally responsible for the cleavage of many key proteins such as PARP, DNA protein kinases and retinoblastoma protein [25]. […] This was true for both activated caspase 8 and 3. A more distinct increase was evident with caspase 3 albeit less pronounced than that of 4c and the increase was expected as caspase 3 is activated by initiator caspase including caspase 8, which is a later event in apoptosis. […] We also evaluated compound 5g for potential to induce other key apoptotic biochemical features such as phosphatidylserine (PS) translocation, cell cycle arrest and mitochondrial membrane depolarization.

A549 cells [5] = assay: Other apoptotic features (PS translocation, cell cycle arrest, mitochondrial membrane depolarization), A549; type: cell-based, human; settings: after 24 h (data not included)
Protocol: as §6

CC(=O)Nc1cc(Br)cc2c(C(=O)C(F)(F)F)c(-c3cccc(Cl)c3)[nH]c12 [Compound 5g, N-[5-Bromo-2-(3-chlorophenyl)-3-trifluoroacetyl-1H-indol-7-yl]acetamide]
IC50 (lung cancer (A549) cells): 2.72 ± 0.43 µM | IC50 [1]: 8.74 ± 0.94 µM | Caspase 8 and 3 activation (% change in mean integrated fluorescence intensity of the untreated control) (HeLa cells [2]): decrease | Caspase 8 and 3 activation (% change in mean integrated fluorescence intensity of the untreated control) (A549 cells [3]): expected increase | PS translocation, cell cycle arrest and mitochondrial membrane depolarization (HeLa cells [4]): failed to induce | PS translocation, cell cycle arrest and mitochondrial membrane depolarization (A549 cells [5]): failed to induce

Reference: article PMC6027433, “Synthesis, Evaluation of Cytotoxicity and Molecular Docking Studies of the 7-Acetamido Substituted 2-Aryl-5-bromo-3-trifluoroacetylindoles as Potential Inhibitors of Tubulin Polymerization” (Pharmaceuticals, 2018)
